Data on five compounds can be found in patent US11951204B2, “Cell-penetrating peptides and composition including the same” (S-SKIN. CO., LTD., priority 2022, dated 2024).

Ends that are not written are not given here.

Data set [1] can be described thus: Cytotoxicity assay (WST-1, microscopy) in HaCaT cells. Particulars: human, HaCaT cells (keratinocytes); for viability at 24 h, 25 µM / viability at 24 h, 50 µM / viability at 24 h, 100 µM / viability at 24 h, 200 µM: HaCaT, read-out: survival rate (WST-1); for viability at 24 h, 25 µM: 25 μM peptide; for viability at 24 h, 50 µM: 50 μM peptide; for viability at 24 h, 100 µM: 100 μM peptide; for viability at 24 h, 200 µM: 200 μM peptide; for viability at 24 h: at all concentrations (25-200 μM), read-out: survival rates of the HaCaT cells. In kind it is cell-based, human. As for the experimental part: (§1) Cytotoxicity of the cell-penetrating multifunctional peptide according to Example 1 was checked. Specifically, HaCaT cells (human keratinocytes) were inoculated at a concentration of 1.5×10^4 cells/well into a 96-well plate and incubated for 24 hours. Then, the medium was removed, followed by washing once with PBS, and replaced with a serum-free medium. The cells were treated with Spep001 (SEQ ID NO: 1), Spep002 (SEQ ID NO: 8) or Spep003 (SEQ ID NO: 9) at a concentration of 0 μM, 25 μM, 50 μM, 100 μM or 200 μM and then further incubated for 24 hours. Herein, culture conditions were maintained at 37° C. with 5% CO2.
(§2) At the time of completion of further incubation, the appearance of the cells were imaged by a microscope, and the result thereof is shown in FIG. 2A(i) to FIG. 2A(xx).
(§3) Also, at the time of completion of incubation, a WST-1 assay (Water Soluble Tetrazolium salt-1, EZ-assay kit, DoGenBio) was conducted. Specifically, 100 μL of a WST-1 solution was added to the well of cells after the completion of further incubation and then incubated for 3 hours. Thereafter, the absorbance at 450 nm was measured using a microplate spectrophotometer (Multiskan™ GO, thermo), and the result thereof is shown in FIG. 2B and Table 2 below.
(§4) Herein, all the result values are expressed in mean±standard deviation. The analysis result of each item was statistically analyzed by a 2-way analysis of variance (ANOVA) test. A Bonferroni post-test was conducted at a P value of *p<0.05 and **p<0.01 only when the significance was determined by ANOVA test. GraphPad prism 5.0.1 (GraphPad Software Inc., San Diego, CA, USA) was used as a statistical software program.
(Tetrazolium dyes change colour on reduction, which living cells bring about.)

Data set [2] has as its system HaCaT cells (human keratinocytes). Described as above. It is filed as cell-based. The conditions noted are these: for cytotoxicity: HaCaT cells; for change in the appearance of the cells (microscope): HaCaT, all concentrations. How it is done: as §1, §2, §3, §4
Data set [3] is described as follows: Cytotoxicity assay (WST-1, microscopy) in HDF-N cells. It is filed as cell-based, human. Particulars: human, HDF-N cells (dermal fibroblasts, neonatal); for viability at 24 h, 25 µM / viability at 24 h, 50 µM / viability at 24 h, 100 µM / viability at 24 h, 200 µM: HDF-N, read-out: survival rate (WST-1); for viability at 24 h, 25 µM: 25 μM peptide; for viability at 24 h, 50 µM: 50 μM peptide; for viability at 24 h, 100 µM: 100 μM peptide; for viability at 24 h, 200 µM: 200 μM peptide; for viability at 24 h: at all concentrations (25-200 μM), read-out: survival rates of the HDF-N cells. As for the experimental part:
as §1, §3
(§5) The appearance of HDF-N (human dermal fibroblast-neonatal) cells were imaged by a microscope as in Example 3, and the result thereof is shown in FIG. 3A(i) to FIG. 3A(xx). However, the HDF-N cells were inoculated at a concentration of 1.0×10^4 cells/well into a 96-well plate.

Data set [4] concerns HDF-N (human dermal fibroblast-neonatal) cells. The data set is described as above. It is filed as cell-based. The conditions noted are these: for cytotoxicity: HDF-N cells; for change in the appearance of the cells (microscope): HDF-N, all concentrations. How it is done: as §1, §3, §5
A further data set deals with HaCaT cells. Put plainly: Cell penetration rate by flow cytometry. It is filed as cell-based, human. Particulars: 10 μM, 37° C., 1 hour. As for the experimental part:
HaCaT cells were inoculated at a concentration of 3×10^5 cells/well into a 6-well plate and incubated for 24 hours. Then, the cell culture medium was removed, followed by washing twice with HBSS, and replaced with an Opti-MEM medium. The cells were treated with 10 μM FITC-TAT, FITC-Spep001, FITC-Spep002 or FITC-Spep003 and incubated at 37° C. with 5% CO2 for 1 hour. […] Finally, the cells were treated with 1 mg/mL trypsin and thus separated into single cells, followed by centrifugation at 1,000 rpm for 5 minutes. The FITC fluorescence intensities of cell-penetrating peptides per living 10,000 cells were measured by performing flow cytometry (Navios Flow Cytometer by Beckman Coulter Life Sciences), and the result thereof is shown in FIG. 5A(i) to FIG. 5A(v) and FIG. 5B.
On the technique in general: Flow cytometry measures light scatter and fluorescence of single cells or particles in a stream.

KRRWRKIPKR [Spep002, KRRWRKIPKR]: in data set [1], the viability at 24 h, 25 µM is 104.7 ± 0.17%; the viability at 24 h, 50 µM came to 103 ± 1.97%; the viability at 24 h, 100 µM was 101 ± 1.97%; the viability at 24 h, 200 µM was determined as 99.01 ± 0.62%. Also, the viability at 24 h in data set [1] is not below 90%. In data set [2], the cytotoxicity result is recorded as “do not express cytotoxicity” and the “change in the appearance of the cells (microscope)” value (shortened to “change in the appearance”) is reported as “no change in the appearance”. Also, in data set [3], the viability at 24 h, 25 µM stood at 102 ± 4.11%; the viability at 24 h, 50 µM was 104.6 ± 0.75%; the viability at 24 h, 100 µM was determined as 108 ± 1.66%; the viability at 24 h, 200 µM is 101 ± 2.44%. The viability at 24 h in data set [3] is not below 90%. Moreover, in data set [4], the cytotoxicity entry was “do not express cytotoxicity” and the “change in the appearance” value is “no change in the appearance”.

Consider RLRLRQRRRR [Spep001, RLRLRQRRRR], for which, in data set [1], the viability at 24 h, 25 µM came to 103 ± 1.62%; the viability at 24 h, 50 µM amounted to 103 ± 2.21%; the viability at 24 h, 100 µM is 106 ± 2.23%; the viability at 24 h, 200 µM was 110 ± 7.48%. For the same compound, in data set [1], the viability at 24 h was not below 90%. Further, in data set [2], the cytotoxicity entry was “do not express cytotoxicity” and the “change in the appearance” value was “no change in the appearance”. Also, in data set [3], the viability at 24 h, 25 µM turned out to be 93.39 ± 0.66%; the viability at 24 h, 50 µM amounted to 101 ± 2.71%; the viability at 24 h, 100 µM amounted to 95 ± 1.53%; the viability at 24 h, 200 µM was found to be 94.5 ± 2.41%. The viability at 24 h in data set [3] is not below 90%. In addition, in data set [4], the cytotoxicity result is “do not express cytotoxicity” and the “change in the appearance” value is listed as “no change in the appearance”.

With `O=C1OC2(c3ccc(O)cc3Oc3cc(O)ccc32)c2ccc(N=C=S)cc21` [FITC, Fluorescein-5-Isothiocyanate, reference compound], the “cell penetration rate (FITC-positive cell count)” value in the data set with HaCaT cells is 0.4%.

For the compound `N=C(N)NCCC[C@H](NC(=O)[C@H](CCCNC(=N)N)NC(=O)[C@H](CCCNC(=N)N)NC(=O)[C@H](CCC(N)=O)NC(=O)[C@H](CCCNC(=N)N)NC(=O)[C@H](CCCNC(=N)N)NC(=O)[C@H](CCCCN)NC(=O)[C@H](CCCCN)NC(=O)[C@H](CCCNC(=N)N)NC(=O)CNC(=O)[C@@H](N)Cc1ccc(O)cc1)C(=O)O` [TAT, YGRKRRQRRR, reference compound], in data set [1], the viability at 24 h, 25 µM was 102 ± 5.09%; the viability at 24 h, 50 µM was 106.3 ± 1.05%; the viability at 24 h, 100 µM was 106 ± 2.94%; the viability at 24 h, 200 µM was found to be 102 ± 2.15%. In addition, in data set [3], the viability at 24 h, 25 µM was determined as 106 ± 3.38%; the viability at 24 h, 50 µM amounted to 94.9 ± 4.22%; the viability at 24 h, 100 µM turned out to be 103 ± 3.02%; the viability at 24 h, 200 µM turned out to be 96.7 ± 5.03%.

On to RKRWLRKPRP [Spep003, RKRWLRKPRP], for which, in data set [1], the viability at 24 h, 25 µM was determined as 98.3 ± 4.45%; the viability at 24 h, 50 µM is 98.6 ± 1.01%; the viability at 24 h, 100 µM amounted to 103 ± 0.6%; the viability at 24 h, 200 µM amounted to 99.9 ± 1.79%. Moreover, the viability at 24 h in data set [1] is not below 90%. In addition, in data set [2], the cytotoxicity entry is given as “do not express cytotoxicity” and the “change in the appearance” value is on record as “no change in the appearance”. In data set [3], the viability at 24 h, 25 µM was 118 ± 5.3%; the viability at 24 h, 50 µM was found to be 104 ± 1.71%; the viability at 24 h, 100 µM stood at 108 ± 3.07%; the viability at 24 h, 200 µM came to 113.5 ± 0.59%. Further, in data set [3], the viability at 24 h is not below 90%. For the same compound, in data set [4], the cytotoxicity result was “do not express cytotoxicity” and the “change in the appearance” value is reported as “no change in the appearance”.
